In PMC4805082, “Seizure control by decanoic acid through direct AMPA receptor inhibition” (Brain, 2015):

Legend:
[1] = test system: epileptiform activity (burst discharges) in hippocampal slices induced by pentylenetetrazol; test: In vitro seizure model, pentylenetetrazol-induced epileptiform activity in hippocampal slices; format: cell-based, rat; settings: pentylenetetrazol 2 mM, K+ 6 mM
Description: (§1) Male Sprague-Dawley rats (postnatal Days 19–30) were sacrificed using an overdose of isoflurane or pentobarbitone (500 mg/kg). After decapitation the brain was rapidly removed, the hippocampus or entorhinal cortex-hippocampus slices was dissected from the brain and […] thick transverse slices were prepared on a VT1200S vibratome (Leica) or Vibratome (Vibratome® 1500 sectioning system, Intracell). The slicing was performed in ice-cold sucrose-based solution containing (in mM): 75 sucrose, 87 NaCl, 22 glucose, 2.5 KCl, 7 MgCl2, 1.25 NaH2PO4, 0.5 CaCl2 and 25 NaHCO3, pH 7.4, 315–330 mOsm equilibrated with 95% O2 plus 5% CO2. The slices were then stored in a continuously oxygenated humidified interface holding chamber containing oxygenated artificial CSF (in mM): 120 NaCl, 22 glucose, 2.5 KCl, 1.3 MgSO4, 1 NaH2PO4, 25 NaHCO3 and 2.5 CaCl2, pH 7.4 296 mOsm, where they recovered for at least 1 h before use.
(§2) During the experiment, slices were transferred from the interface chamber into a submerged recording chamber, designed to optimize wash-in and wash-out of drugs, and continuously perfused using gravity feed at 3–6 ml/min with prewarmed (36°C) oxygenated artificial CSF (95% O2, 5% CO2). Field potentials were recorded with a glass microelectrode (1–2 MΩ) filled with artificial CSF solution placed in stratum radiatum of CA1 and were filtered at 1 kHz and digitized at 2 kHz (using an npi EXT-02F extracellular amplifier recorded with WinEDR software). In the pentylenetetrazol model, the epileptiform (paroxysmal) activity was induced by application of pentylenetetrazol (2 mM) to the perfusate and [K^+] was increased (to 6 mM); in low-Mg^2+ model, the epileptiform activity was elicited by using Mg^2+-free artificial CSF. Once the frequency of the paroxysmal activity was stable for at least 10 min, compounds were applied to the perfusate for the following 40 min, and washed out for a remaining 20 min. The anticonvulsant effects were evaluated by measuring the change in the frequency of the discharges at minute intervals. The discharge frequency was then averaged every 5 min during the experiment and normalized to baseline. The compounds applied in this study included: 1% dimethyl sulphoxide (DMSO), acetone (10 mM, Sigma), (±)-sodium 3-hydroxybutyrate (BHB) (10 mM, Sigma), and decanoic acid (1 mM, Alfa Aesar Pty). Acetone and decanoic acids were prepared as 1000× stocks in DMSO, and BHB was prepared as 100× stock. Stocks were dissolved in artificial CSF to achieve their final concentrations during experiments, and where applicable, experiments included constant levels of DMSO.

[2] = test system: epileptiform activity (burst discharges) in hippocampal slices induced by low-Mg2+; test: In vitro seizure model, low-Mg2+ induced epileptiform activity in hippocampal slices; format: cell-based, rat; settings: 10 mM; low magnesium
Description: as §1
as §2, with “The discharge frequency was then averaged every 5 min during the experiment and normalized to baseline. The compounds applied in this study included: 1% dimethyl sulphoxide (DMSO), acetone (10 mM, Sigma), (±)-sodium 3-hydroxybutyrate (BHB) (10 mM, Sigma), and decanoic acid (1 mM, Alfa Aesar Pty). Acetone and decanoic acids were prepared as 1000× stocks in DMSO, and BHB was prepared as 100× stock. Stocks were dissolved in artificial CSF to achieve their final concentrations during experiments, and where applicable, experiments included constant levels of DMSO.” left out

AMPA receptor GluA2/3 = target: T1, AMPA receptor GluA2/3 (Homo sapiens, UniProt P42262+P42263); test: Two-electrode voltage clamp, AMPA receptor GluA2/3 expressed in Xenopus oocytes; format: cell-based; settings: for AMPA receptor currents: compound 1 mM, currents elicited by 100 µM L-glutamate, −50 mV
T1 construct: expressed in transfected cells; host or cells: Xenopus laevis oocytes injected with cRNA (1:1 mix)
T1 sequence (P42262 22-883 isoform P42262-2 limits assumed): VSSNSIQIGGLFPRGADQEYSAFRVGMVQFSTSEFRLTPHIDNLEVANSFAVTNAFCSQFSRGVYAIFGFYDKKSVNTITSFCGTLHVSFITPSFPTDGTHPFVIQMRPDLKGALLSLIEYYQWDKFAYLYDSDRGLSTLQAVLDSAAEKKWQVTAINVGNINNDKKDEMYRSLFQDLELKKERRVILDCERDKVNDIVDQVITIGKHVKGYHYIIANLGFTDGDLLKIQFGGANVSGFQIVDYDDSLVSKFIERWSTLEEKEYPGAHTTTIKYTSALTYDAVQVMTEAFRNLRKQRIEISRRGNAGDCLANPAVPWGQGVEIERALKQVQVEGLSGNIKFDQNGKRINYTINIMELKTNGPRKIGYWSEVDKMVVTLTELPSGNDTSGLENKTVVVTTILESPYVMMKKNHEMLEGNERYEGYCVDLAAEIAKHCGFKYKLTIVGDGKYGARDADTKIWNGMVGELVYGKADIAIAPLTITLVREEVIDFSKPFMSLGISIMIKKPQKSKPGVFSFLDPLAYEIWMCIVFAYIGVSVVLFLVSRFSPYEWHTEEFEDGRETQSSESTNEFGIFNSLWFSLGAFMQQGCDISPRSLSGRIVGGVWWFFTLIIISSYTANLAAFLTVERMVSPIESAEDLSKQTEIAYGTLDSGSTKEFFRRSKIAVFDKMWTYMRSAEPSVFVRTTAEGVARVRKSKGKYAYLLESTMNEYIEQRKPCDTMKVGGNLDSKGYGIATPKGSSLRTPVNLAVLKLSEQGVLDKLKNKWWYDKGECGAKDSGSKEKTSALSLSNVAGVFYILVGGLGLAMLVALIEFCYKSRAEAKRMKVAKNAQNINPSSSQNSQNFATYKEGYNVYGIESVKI
T1 sequence (P42263 29-894 isoform P42263-2 limits assumed): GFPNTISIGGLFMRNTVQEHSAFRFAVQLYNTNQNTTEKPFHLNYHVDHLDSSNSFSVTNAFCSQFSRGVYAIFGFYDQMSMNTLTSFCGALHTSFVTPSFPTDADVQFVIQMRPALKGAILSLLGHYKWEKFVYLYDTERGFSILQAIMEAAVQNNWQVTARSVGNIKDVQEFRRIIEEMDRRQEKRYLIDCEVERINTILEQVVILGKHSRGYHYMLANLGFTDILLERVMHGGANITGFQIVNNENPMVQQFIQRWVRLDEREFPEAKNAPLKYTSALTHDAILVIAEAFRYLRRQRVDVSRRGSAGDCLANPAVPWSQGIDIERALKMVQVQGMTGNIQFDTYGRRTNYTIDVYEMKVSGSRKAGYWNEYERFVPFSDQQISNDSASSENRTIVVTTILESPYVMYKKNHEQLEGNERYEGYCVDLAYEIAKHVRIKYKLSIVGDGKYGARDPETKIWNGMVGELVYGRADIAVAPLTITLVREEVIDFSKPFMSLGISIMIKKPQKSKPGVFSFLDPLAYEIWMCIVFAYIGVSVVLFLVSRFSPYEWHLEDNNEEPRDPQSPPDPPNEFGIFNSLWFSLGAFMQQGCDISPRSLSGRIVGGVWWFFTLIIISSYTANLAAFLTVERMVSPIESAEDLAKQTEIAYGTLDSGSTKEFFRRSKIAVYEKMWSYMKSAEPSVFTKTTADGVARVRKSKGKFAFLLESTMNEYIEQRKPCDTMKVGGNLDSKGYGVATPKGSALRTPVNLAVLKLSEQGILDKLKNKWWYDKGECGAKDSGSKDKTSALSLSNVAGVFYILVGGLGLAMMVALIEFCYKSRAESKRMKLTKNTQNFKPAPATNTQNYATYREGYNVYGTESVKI
Description: The AMPA receptor (flip isoform) cDNAs inserted in a SP6 polymerase expression vector (pSP6T) were a generous gift from Prof. Ralf Schoepfer (NPP, UCL). […] AMPA receptor cRNAs were mixed in a nominal 1:1 ratio and ∼5 ng was injected per oocyte.
(§3) Xenopus laevis oocytes were purchased from the European Xenopus Resource Centre, University of Portsmouth. Stage V to VI oocytes were mechanically dissected and then subjected to gentle shaking for ∼30–50 min at room temperature with modified Barth’s solution (in mM): 88 NaCl, 1 KCl, 2.4 NaHCO3, 0.82 MgCl2, 0.77 CaCl2, 15 Tris-Cl, adjusted to pH 7.4 with NaOH (Sigma-Aldrich), supplemented with 50 IU/ml penicillin and 50 µg/ml streptomycin (Invitrogen) and 50 µg/ml tetracycline (Sigma-Aldrich) and 1% collagenase (type 1A). Healthy oocytes were manually defolliculated and the injections of cRNA for homomeric subunits alone (GluA1), or heteromeric mixtures of two subunits together (GluA1/GluA2 or GluA2/GluA3) were made using an automated Drummond Nanoinject II injector. The oocytes were then incubated at 17°C in modified Barth’s solution for at least 48 h before use in electrophysiological recordings.
Experiments were performed at room temperature (∼21–23°C). […] Current and voltage electrodes were filled with 300 mM KCl and made from thin-walled borosilicate glass (GC150TF-7.5, Harvard Apparatus) using a PC-10 electrode puller (Narashige Instruments) and had resistances of 0.5–2 MΩ. […] Compounds were dissolved in distilled water or DMSO and dissolved in bathing solution to achieve their final concentrations during experiments, and were applied under gravity flow during the experiment by using a multi-valve perfusion system (VC3-8C, ALA Scientific Instruments). The bath solutions were perfused at a rate of 10 ml/min. […] Data acquisition was performed using the Windows PC-based program, WinEDR v3.0.6 (John Dempster, University of Strathclyde, UK).
Statistical analysis was performed using ANOVA with Tukey post hoc test, paired t-test or unpaired t-test.

AMPA receptor = test system: AMPA receptor; set-up: method as in Arai, 2001; settings: 50 µM; ref Arai, 2001; cited from earlier work
AMPA receptor GluA1 = target: T2, AMPA receptor GluA1 (Homo sapiens, UniProt P42261); test: Two-electrode voltage clamp, homomeric GluA1 AMPA receptor expressed in Xenopus oocytes; format: cell-based; settings: glutamate 100 µM
T2 construct: expressed in transfected cells; host or cells: Xenopus laevis oocytes injected with cRNA
T2 sequence (P42261 19-906 isoform P42261-2 limits assumed): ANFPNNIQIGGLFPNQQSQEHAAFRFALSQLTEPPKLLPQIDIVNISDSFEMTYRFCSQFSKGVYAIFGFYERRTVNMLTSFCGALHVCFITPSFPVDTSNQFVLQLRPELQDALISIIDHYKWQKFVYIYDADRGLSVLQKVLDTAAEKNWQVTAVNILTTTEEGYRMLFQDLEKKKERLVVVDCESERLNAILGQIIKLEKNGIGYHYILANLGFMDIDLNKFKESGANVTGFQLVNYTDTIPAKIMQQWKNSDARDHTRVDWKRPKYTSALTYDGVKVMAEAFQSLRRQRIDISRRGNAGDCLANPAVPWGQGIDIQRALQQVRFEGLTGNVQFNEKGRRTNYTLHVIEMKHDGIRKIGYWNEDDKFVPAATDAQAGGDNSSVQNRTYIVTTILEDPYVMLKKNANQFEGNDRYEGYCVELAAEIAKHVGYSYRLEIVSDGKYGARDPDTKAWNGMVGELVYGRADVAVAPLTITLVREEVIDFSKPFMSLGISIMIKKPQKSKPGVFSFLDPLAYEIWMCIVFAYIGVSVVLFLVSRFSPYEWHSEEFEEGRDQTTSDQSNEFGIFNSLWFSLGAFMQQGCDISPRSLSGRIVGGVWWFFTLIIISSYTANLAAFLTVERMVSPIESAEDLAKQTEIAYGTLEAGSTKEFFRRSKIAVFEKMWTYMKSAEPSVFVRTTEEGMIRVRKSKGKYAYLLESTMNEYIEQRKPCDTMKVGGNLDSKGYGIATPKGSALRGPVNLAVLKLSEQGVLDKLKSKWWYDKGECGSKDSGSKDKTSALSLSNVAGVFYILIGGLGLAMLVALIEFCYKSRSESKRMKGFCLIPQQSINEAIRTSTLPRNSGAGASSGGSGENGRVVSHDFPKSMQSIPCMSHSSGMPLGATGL
Description: The AMPA receptor (flip isoform) cDNAs inserted in a SP6 polymerase expression vector (pSP6T) were a generous gift from Prof. Ralf Schoepfer (NPP, UCL). RNA was transcribed in vitro from MluI linearized transcripts using the SP6 Promega RiboMAX® RNA synthesis kit according to manufacturer’s protocols except for the addition of 0.75 mM capping nucleotide m^7G(5’)ppp(5’)G (Promega) and 1.6 mM GTP. cRNA concentrations and integrity were estimated by the intensity of fluorescence bands in RNA denaturating gels. AMPA receptor cRNAs were mixed in a nominal 1:1 ratio and ∼5 ng was injected per oocyte.
as §3
Experiments were performed at room temperature (∼21–23°C). An oocyte was placed in a recording chamber (0.3–0.5 ml volume) and perfused with ND96 solution (96 mM NaCl, 2 mM KCl, 1.8 mM CaCI2, 1 mM MgCl2, 5 mM HEPES, with pH adjusted to 7.5). Current and voltage electrodes were filled with 300 mM KCl and made from thin-walled borosilicate glass (GC150TF-7.5, Harvard Apparatus) using a PC-10 electrode puller (Narashige Instruments) and had resistances of 0.5–2 MΩ. Oocytes were voltage-clamped to a holding potential of −50 mV or −60 mV using a Turbo TEC-03 amplifier (npi electronics). […]

field EPSP = test system: field EPSP; set-up: method as in Ceolin et al., 2012; settings: at 30–50 nM; ref Ceolin et al., 2012; cited from earlier work
[3] = humans; ref Rogawski and Hanada, 2013; cited from earlier work
[4] = test system: epileptiform activity (burst discharges) in hippocampal slices induced by pentylenetetrazol; set-up: method as in Chang et al., 2012, 2013; settings: 1 mM; ref Chang et al., 2012, 2013; cited from earlier work
[5] = test system: epileptiform activity (burst discharges) in hippocampal slices induced by low-Mg2+; set-up: method as in Chang et al., 2012, 2013; settings: 1 mM; ref Chang et al., 2012, 2013; cited from earlier work

With `CC(O)CC(=O)O` (racemic) [β-hydroxybutyrate, (±)-sodium 3-hydroxybutyrate] the “effect on epileptiform activity” value ([1]; 10 mM) was “did not have any effect” and the “effect on epileptiform activity” value [2] was “did not have any effect”.

For `CCCCC(C)CCC(=O)O` (stereo not drawn) [4-methyloctanoic acid], the IC50 (AMPA receptor GluA2/3; glutamate 100 µM, read-out: IC50, inhibition of glutamate-induced AMPA receptor current) was 840 ± 40 µM.

For `CC1=NN=C(c2ccc(N)cc2)c2cc3c(cc2C1)OCO3` [GYKI 52466, reference compound], the “effect on epileptiform activity” value ([1]; 50 µM) is given as “completely blocked” and the “decrease in AMPA receptor responses” value (AMPA receptor) is given as 60–70%.

With `CC(C)=O` [acetone] the “effect on epileptiform activity” value ([1]; 10 mM) was “did not have any effect” and the “effect on epileptiform activity” value [2] was “did not have any effect”.

In the case of `CCCCCCCC(=O)O` [octanoic acid, reference compound], the AMPA receptor currents (AMPA receptor GluA2/3) is reported as “no effect” and the “effect on homomeric GluA1 currents” value (AMPA receptor GluA1) is reported as “no effect”.

For `N#Cc1ccccc1-c1cc(-c2ccccn2)cn(-c2ccccc2)c1=O` [perampanel], the “reduction in field EPSP slope” value (field EPSP) is listed as about 20% and the “free concentrations observed to be efficacious” value [3] is listed as 0.03 to 0.05 µM.

In the case of `CCCC(CCC)C(=O)O` [valproic acid], the AMPA receptor currents (AMPA receptor GluA2/3) is given as “no action”, the “effect on homomeric GluA1 currents” value (AMPA receptor GluA1) is given as “no effect” and the “effect on seizure activity” value [4] is given as “only modifies seizure activity”. The “effect on seizure activity” value [5] was “only modifies seizure activity”.
